ChEMBL document CHEMBL4715750, “Synthesis and in vitro, ex-vivo and in vivo activity of hybrid compounds linking a potent ROS and RNS scavenger activity with diverse substrates addressed to pass across the blood-brain barrier” (Eur J Med Chem, 2016)
Active and inactive are the calls of the source. No cut-off for these calls is given here.

Key:
[1] = Cytotoxicity against human SH-SY5Y cells assessed as cell viability at 0.8 uM measured after 24 hrs by MTT assay relative to control; assay type: cell-based; details: read-out: Activity
[2] = Cytotoxicity against human SH-SY5Y cells assessed as cell viability at 1.6 uM measured after 2 hrs by MTT assay relative to control; assay type: cell-based; details: read-out: Activity
[3] = Cytotoxicity against human SH-SY5Y cells assessed as cell viability at 6.3 uM measured after 24 hrs by MTT assay relative to control; assay type: cell-based; details: read-out: Activity
[4] = Cytotoxicity against human SH-SY5Y cells assessed as cell viability at 3.1 uM measured after 24 hrs by MTT assay relative to control; assay type: cell-based; details: read-out: Activity
[5] = Cytotoxicity against human SH-SY5Y cells assessed as cell viability at 12.5 uM measured after 2 hrs by MTT assay relative to control; assay type: cell-based; details: read-out: Activity
[6] = Cytotoxicity against human SH-SY5Y cells assessed as cell viability at 1.6 uM measured after 24 hrs by MTT assay relative to control; assay type: cell-based; details: read-out: Activity
[7] = Cytotoxicity against human SH-SY5Y cells assessed as cell viability at 25 uM measured after 2 hrs by MTT assay relative to control; assay type: cell-based; details: read-out: Activity
[8] = Cytotoxicity against human SH-SY5Y cells assessed as cell viability at 100 uM measured after 2 hrs by MTT assay relative to control; assay type: cell-based; details: read-out: Activity
SH-SY5Y [9] = test: Antioxidant activity in human SH-SY5Y cells assessed as inhibition of H2O2-induced DCFH oxidation measured after 1 hr by DCFH-DA dye based fluorescence assay; assay type: functional, cell-based
[10] = Cytotoxicity against human SH-SY5Y cells assessed as cell viability at 50 uM measured after 2 hrs by MTT assay relative to control; assay type: cell-based; details: read-out: Activity
[11] = Cytotoxicity against human SH-SY5Y cells assessed as cell viability at 6.3 uM measured after 2 hrs by MTT assay relative to control; assay type: cell-based; details: read-out: Activity
[12] = Antioxidant activity assessed as DPPH radical scavenging activity incubated for 60 mins in absence of light; assay type: functional
[13] = Cytotoxicity against human SH-SY5Y cells assessed as cell viability at 3.1 uM measured after 2 hrs by MTT assay relative to control; assay type: cell-based; details: read-out: Activity
[14] = Cytotoxicity against human SH-SY5Y cells assessed as cell viability at 100 uM measured after 24 hrs by MTT assay relative to control; assay type: cell-based; details: read-out: Activity
[15] = Permeability of the compound at pH 7.4 by PAMPA-BBB assay; assay type: ADME; details: read-out: permeability
[16] = Cytotoxicity against human SH-SY5Y cells assessed as cell viability at 25 uM measured after 24 hrs by MTT assay relative to control; assay type: cell-based; details: read-out: Activity
[17] = Cytotoxicity against human SH-SY5Y cells assessed as cell viability at 12.5 uM measured after 24 hrs by MTT assay relative to control; assay type: cell-based; details: read-out: Activity
[18] = Cytotoxicity against human SH-SY5Y cells assessed as cell viability at 50 uM measured after 24 hrs by MTT assay relative to control; assay type: cell-based; details: read-out: Activity
[19] = Cytotoxicity against human SH-SY5Y cells assessed as cell viability at 0.8 uM measured after 2 hrs by MTT assay relative to control; assay type: cell-based; details: read-out: Activity
SH-SY5Y [20] = test: Cytoprotective activity against DMSO-induced toxicity in human SH-SY5Y cells; assay type: functional, cell-based

Row | SMILES | IC50 (SH-SY5Y [9]) [µM] | IC50 [12] [µM] | Papp [15] [×10⁻⁶ cm/s] | viability at 24 h, 0.8 µM [1] [%] | viability at 2 h, 1.6 µM [2] [%] | viability at 24 h, 6.3 µM [3] [%] | viability at 24 h, 3.1 µM [4] [%] | viability at 2 h, 12.5 µM [5] [%] | viability at 24 h, 1.6 µM [6] [%] | viability at 2 h, 25 µM [7] [%] | viability at 2 h, 100 µM [8] [%] | Activity (SH-SY5Y [9]) | viability at 2 h, 50 µM [10] [%] | viability at 2 h, 6.3 µM [11] [%] | viability at 2 h, 3.1 µM [13] [%] | viability at 24 h, 100 µM [14] [%] | viability at 24 h, 25 µM [16] [%] | viability at 24 h, 12.5 µM [17] [%] | viability at 24 h, 50 µM [18] [%] | viability at 2 h, 0.8 µM [19] [%] | further results
1 | COc1cc2c(cc1O)CCC(C)(CC(=O)N[C@@H](Cc1c[nH]c3ccccc13)C(=O)O)O2 (stereo not given in full) | > 200 | 15.5 | 1.18 | 94.6 | 97.2 | 94.9 | 100 | 100 | 96 | 100 | 95.4 | Dose-dependent effect | 95.2 | 100 | 97.9 | 65.9 | 90 | 91.2 | 92.8 | 94.8 | Activity (SH-SY5Y [20]): Active
2 | COc1cc2c(cc1O)CCC(C)(CC(=O)NCCc1ccc(O)c(O)c1)O2 (stereo not given) | 21.6 | 6.9 | 0.2 | 100 | 100 | 98.4 | 94.8 | 100 | 88.9 | 100 | 100 | Dose-dependent effect | 100 | 100 | 100 | 58.4 | 79.1 | 84.2 | 77.5 | 100 | 
3 | COc1cc2c(cc1O)CCC(C)(CCNC(=O)/C=C(C)/C=C/C=C(C)/C=C/C1=C(C)CCCC1(C)C)O2 (stereo not given) | > 300 | 16.2 |  | 89.6 | 93.6 | 100 | 100 | 100 | 99.1 | 100 | 57.7 | Dose-dependent effect | 97.4 | 90.5 | 97.3 | 47.9 | 91.2 | 100 | 91.7 | 87.4 | 
4 | COc1cc2c(cc1O)CCC(C)(CC(=O)N[C@@H](CCC(N)=O)C(=O)O)O2 (stereo not given in full) | 78 | 15 |  | 92.8 | 97.1 | 84 | 100 | 100 | 89.4 | 100 | 86.5 | Dose-dependent effect | 100 | 100 | 100 | 58.2 | 91.8 | 84.8 | 83.2 | 92.8 | 
5 | Cc1c(C)c2c(c(C)c1O)CCC(C)(C(=O)O)O2 (stereo not given) [TROLOX] | 82.3 | 15.7 | 1.04 | 84.6 | 88.5 | 83.7 | 79.6 | 95 | 87.6 | 99 | 86.5 | Dose-dependent effect | 92.4 | 97.4 | 97.6 | 68 | 86.4 | 82.8 | 81.9 | 93.2 | 

Second part, led by results:

Row | IC50 (SH-SY5Y [9]) [µM] | IC50 [12] [µM] | Papp [15] [×10⁻⁶ cm/s] | SMILES | viability at 24 h, 0.8 µM [1] [%] | viability at 2 h, 1.6 µM [2] [%] | viability at 24 h, 6.3 µM [3] [%] | viability at 24 h, 3.1 µM [4] [%] | viability at 2 h, 12.5 µM [5] [%] | viability at 24 h, 1.6 µM [6] [%] | viability at 2 h, 25 µM [7] [%] | viability at 2 h, 100 µM [8] [%] | Activity (SH-SY5Y [9]) | viability at 2 h, 50 µM [10] [%] | viability at 2 h, 6.3 µM [11] [%] | viability at 2 h, 3.1 µM [13] [%] | viability at 24 h, 100 µM [14] [%] | viability at 24 h, 25 µM [16] [%] | viability at 24 h, 12.5 µM [17] [%] | viability at 24 h, 50 µM [18] [%] | viability at 2 h, 0.8 µM [19] [%] | further results
6 | 43.8 | 17.3 | 0.03 | COc1cc2c(cc1O)CCC(C)(CC(=O)N[C@H](C(=O)O)C(C)C)O2 (stereo not given in full) | 75.7 | 92.6 | 82 | 79.1 | 96.4 | 82.1 | 96.6 | 85.9 | Dose-dependent effect | 100 | 99.7 | 98 | 61 | 76.1 | 82.6 | 79.3 | 93.3 | 
7 | 32.3 | 8.4 |  | COc1cc2c(cc1O)CCC(C)(CC(=O)O)O2 (stereo not given) | 90.2 | 100 | 100 | 100 | 100 | 100 | 100 | 79.9 | Dose-dependent effect | 100 | 100 | 100 | 53.1 | 92.5 | 92 | 61 | 100 | 
8 | 41.4 | 19.1 | 0.04 | COc1cc2c(cc1O)CCC(C)(CC(=O)N1CCC[C@H]1C(=O)O)O2 (stereo not given in full) | 92.8 | 99.2 | 100 | 100 | 100 | 93.2 | 100 | 78.8 | Dose-dependent effect | 100 | 98.8 | 100 | 79.6 | 95.8 | 100 | 100 | 100 | 
9 | 71.2 | 10.5 | 0.28 | COc1cc2c(cc1O)CCC(C)(CC(N)=O)O2 (stereo not given) | 96.7 | 96.1 | 100 | 100 | 85.8 | 100 | 83.6 | 54.7 | Dose-dependent effect | 74.9 | 80.8 | 84.8 | 51.4 | 100 | 100 | 99.2 | 88.2 | Activity (SH-SY5Y [20]): Active
10 | 92.6 | 14.7 | 0.06 | COc1cc2c(cc1O)CCC(C)(CC(=O)N[C@@H](C)C(=O)O)O2 (stereo not given in full) | 100 | 86.9 | 94.6 | 100 | 85 | 100 | 89.5 | 70.1 | Dose-dependent effect | 86.6 | 86.4 | 79.5 | 68.5 | 100 | 100 | 100 | 87.6 | Activity (SH-SY5Y [20]): Active
